Results taken from patent publication US6521609B1, “Use of CGRP antagonists and CGRP release inhibitors for combating menopausal hot flushes” (Boehringer Ingelheim Pharma KG, priority 1999, dated 2003).

These molecules were tested on increased blood flow through the facial skin caused by endogenous CGRP (assay: Trigeminal ganglion stimulation in marmosets: facial skin blood flow (laser Doppler)). Conditions: anaesthetized marmosets, i.v. 5 minutes before trigeminal ganglion stimulation (10 Hz, 2 mA, 2 msec, 30 seconds).
Format: in vivo, marmoset
Method: The efficacy of the following test substances was characterised by determining the dose administered i.v. which reduces by 50% the increased blood flow through the skin of the face which has been brought about by endogenous CGRP:
Marmosets of both sexes (300-400 g) are anaesthetized with pentobarbital (initially with 30 mg/kg, i.p., followed by infusion of 6 mg/kg/h, […].). The body temperature is maintained at 37° C. using a heating plate. Pancuronium is administered as a muscle relaxant (initially 1 mg/kg, 0.5 mg after each hour thereafter). The animal's head is secured in a stereotactical apparatus. After the skin on the head has been opened using a lengthwise incision, a small hole is drilled in the skull and a bipolar electrode (Rhodes SNES 100) is lowered into the trigeminal ganglion. […] The petrous bone serves as a guide for placing the electrode (CCX-Digital X-ray apparatus). The position of the electrode in the ganglion is monitored at the end of each experiment. The stimulation parameters are: 10 Hz, 2 mA, 2 msec, for 30 seconds. The blood flow in the micro-vessels of the facial skin is determined by laser Doppler flow measurement using a PeriFlux Laser Doppler System. The animals are exposed to 2 to 3 stimulation periods at intervals of 30 minutes in each case. The first stimulation serves as a reference value for the other stimulations. The test substances are administered i.v. 5 minutes before the 2nd and 3rd stimulation periods.

| SMILES | 50% dose (i.v. dose which reduces by 50% the increased blood flow through the facial skin caused by endogenous CGRP) [mg/kg] |
| --- | --- |
| CN(C)CCc1c[nH]c2ccc(C[C@H]3COC(=O)N3)cc12 [DB] | 0.035 |
| CNS(=O)(=O)Cc1ccc2[nH]cc(CCN(C)C)c2c1 [DA] | 0.280 |
| Nc1c(Br)cc(C[C@@H](NC(=O)N2CCC(N3Cc4ccccc4NC3=O)CC2)C(=O)N2CCC(N3CCCCC3)CC2)cc1Br [AM] | 0.046 |
